Results from patent US4176182A, “Sulfamoyl derivatives of 8-β-aminomethylergoline” (priority 1976, dated 1979).
Converted amounts (≈) assume the structure as drawn. Where two headings read alike, the source gives them in different places.

Legend:
[1] = test system: 5-hydroxytryptamine (serotonin) induced contractions, uterus of female rat; assay: inhibition of 5-hydroxytryptamine (serotonin)-induced contractions in uterus of female rat, in vitro; format: cell-based; settings: for EC50: 5-HT-induced contractions, rat treated with estradiol dipropionate 20 hours before; for times more active than the comparison compound as to the anti-5 HT activity: comparison compound methergoline
Experimental: (§1) These novel compounds show anti-serotonin activity both peripherally and on the central nervous system. This activity had been tested "in vitro" through the inhibition of the contractions as induced by 5-hydroxytryptamine (serotonin) (5 HT) in the uterus of a female rat, which 20 hours before the test had been treated with estradiol dipropionate (see Ersparmer, Archiv. int. Pharmacodyn. 93, 293, 1953), and "in vivo" on the clones induced by tryptamine (40 mg/kg i.v.) in the rat (S. J. Corne et al., Brit. J. Pharmacol., 20, 106, 1963).

[2] = test system: clones induced by tryptamine; assay: clones induced by tryptamine in the rat, in vivo; settings: sc, read-out: Clones induced by Tryptamine ED50
Experimental: as §1

[3] = test system: seminal vesicle of guinea pig; assay: adrenolytic activity, seminal vesicle of guinea pig, in vitro; format: cell-based; settings: for EC50: Cavia porcellus, adrenolytic activity, in vitro; for times less active as regards the adrenolytic activity: vs comparison compound (dihydroergocristine as alpha-blocking agent)
[4] = test system: ileus of guinea pig (BaCl2); assay: spasmolytic activity, ileus of guinea pig, BaCl2, in vitro; format: cell-based; settings: for EC50: Cavia porcellus, spasmolytic activity, in vitro, no quantity or unit printed in this column head; for times less active as regards the spasmolytic activity: vs comparison compound (papaverine as spasmolytic agent)
[5] = LD50 in the mouse, iv; settings: in vivo

| Structure (SMILES) | EC50 [1] [ng/mL] | times more active than the comparison compound as to the anti-5 HT activity [1] [times] | ED50 ([2]; rat, tryptamine 40 mg/kg i.v.) [mg/kg] | EC50 [3] [ng/mL] | times less active as regards the adrenolytic activity [3] [times] | EC50 [4] [ng/mL] | times less active as regards the spasmolytic activity [4] [times] | LD50 [5] [mg/kg] | ED50 ([2]; Rattus norvegicus) [mg/kg] |
| --- | --- | --- | --- | --- | --- | --- | --- | --- | --- |
| CN1C[C@H](CNS(=O)(=O)N2CCCC2)C=C2c3cccc4c3c(cn4C)C[C@H]21 [Compound 11, 1-(1,6-dimethyl-8β-didehydroergolenylmethyl)-3-pyrrolidine-sulfonamide] | 0.2 (≈ 0.000499 µM) | 25 | 0.016 | 1000 (≈ 2.5 µM) | 25 | 15000 (≈ 37.4 µM) | 2 | 22.3 |  |
| CN1C[C@H](CNC(=O)OCc2ccccc2)C[C@@H]2c3cccc4c3c(cn4C)C[C@H]21 [Methergoline, methergoline, reference compound] | 5 (≈ 0.0124 µM) |  |  |  |  |  |  | 21.2 | 0.062 |
| CN1C[C@H](CNS(=O)(=O)N2CCCCC2)C=C2c3cccc4[nH]cc(c34)C[C@H]21 [Compound 5, 1-(6-methyl-8β-didehydroergolenylmethyl)-3-piperidino-sulfonamide] | 3 (≈ 0.00749 µM) |  | 0.51 | 200 (≈ 0.499 µM) |  | 7500 (≈ 18.7 µM) |  | 45 |  |
| CN1C[C@H](CNS(=O)(=O)N2CCCCCC2)C=C2c3cccc4[nH]cc(c34)C[C@H]21 [Compound 7, 1-(1H-hexahydroazepine)-3-(6-methyl-8β-didehydroergolenyl-methyl)-sulfonamide] | 7 (≈ 0.0169 µM) |  | 2.47 | 800 (≈ 1.93 µM) |  | 5000 (≈ 12.1 µM) |  | 50.2 |  |
| CN1C[C@H](CNS(=O)(=O)N2CCCCC2)C=C2c3cccc4c3c(cn4C)C[C@H]21 [Compound 12, 1-(1,6-dimethyl-8β-didehydroergolenylmethyl)-3-piperidino-sulfonamide] | 0.02 (≈ 4.82e-05 µM) | 250 | 0.046 | 1000 (≈ 2.41 µM) | 25 | 15000 (≈ 36.2 µM) | 2 | 20 |  |
| COc1ccc(Cc2nccc3cc(OC)c(OC)cc23)cc1OC [Papaverin, papaverine, reference compound] |  |  |  |  |  | 8900 (≈ 26.2 µM) |  | 38 |  |
| CN1C[C@H](CNS(=O)(=O)N2CCOCC2)C=C2c3cccc4[nH]cc(c34)C[C@H]21 [Compound 9, 1-(6-methyl-8β-didehydroergolenylmethyl)-3-morpholino-sulfonamide] | 5 (≈ 0.0124 µM) |  | 4.25 | 100 (≈ 0.248 µM) |  | 15000 (≈ 37.3 µM) |  | 34.5 |  |
| CN1C[C@H](CNS(=O)(=O)N2CCOCC2)C[C@@H]2c3cccc4[nH]cc(c34)C[C@H]21 [Compound 10] | 5 (≈ 0.0124 µM) |  | 7.2 | 70 (≈ 0.173 µM) |  | 5000 (≈ 12.4 µM) |  | 51 |  |
| CC(C)[C@@]1(NC(=O)[C@@H]2C[C@@H]3c4cccc5[nH]cc(c45)C[C@H]3N(C)C2)O[C@@]2(O)[C@@H]3CCCN3C(=O)[C@H](Cc3ccccc3)N2C1=O [Dihydroergocristine methansulfonate, dihydroergocristine, reference compound] |  |  |  | 8 |  |  |  | 70 |  |
| CN1C[C@H](CNS(=O)(=O)N(C)C)C[C@@H]2c3cccc4[nH]cc(c34)C[C@H]21 [Compound 2] | 5 (≈ 0.0138 µM) |  | 10 | 1500 (≈ 4.14 µM) |  | 10000 (≈ 27.6 µM) |  | 22.5 |  |
